Experimental data taken from patent publication USRE47689E1, “Compounds for treating spinal muscular atrophy” (PTC Therapeutics, Inc., priority 2011, dated 2019).

Assays:
[1] = test system: SMN2 minigene (full length SMN2 minigene mRNA containing SMN2 exon 7); test: SMN2 minigene mRNA splicing RT-qPCR assay in cultured cells; format: cell-based, human; settings: Homo sapiens, HEK293-H; HEK293H cells stably transfected with SMN2-A minigene; 24 hours; 7-point concentration curve; 1.5-fold relative to vehicle-treated cells; read-out: EC1.5x for production of full length SMN2 mRNA
Summary of the method: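 HEK293H cells stably carrying the SMN2-A minigene treated 24 h at 37° C with compound (DMSO, 200× stock), then lysed. Multiplex RT-qPCR (SMN primers 0.4 μM final; 40 cycles) measures full-length exon 7-containing minigene mRNA, normalized to GAPDH and to vehicle; EC1.5x derived and binned by stars.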

Smn protein = Smn protein assay in cultured cells (SMN HTRF); format: cell-based, human; settings: 48 hours; for EC1.5x (concentration giving 1.5-fold Smn protein increase): SMA Type 1 patient fibroblast cells (GM03813), 7-point concentration curve, SMN HTRF, concentration producing 1.5 times Smn protein vs DMSO vehicle control, read-out: EC1.5x for Smn protein expression; for maximum fold (Fold) increase of Smn protein: SMA patient fibroblast cells, 7-point concentration data, fold increase relative to vehicle control (SMN HTRF)
Summary of the method: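 Lysates in RIPA with protease inhibitors are incubated overnight at room temperature with HTRF anti-SMN antibodies. EC1.5x is derived from fold increase in ΔF over vehicle.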

| melting point | Structure (SMILES) | EC (1.5-fold) [1] | EC1.5x (concentration giving 1.5-fold Smn protein increase) (Smn protein) | maximum fold (Fold) increase of Smn protein (Smn protein) |
| --- | --- | --- | --- | --- |
| 235 to 237 °C | CN1CCN(c2ccc3cc(-c4cc5ccccn5n4)c(=O)oc3c2)CC1 [Compound 188, 7-(4-methylpiperazin-1-yl)-3-(pyrazolo[1,5-a]pyridin-2-yl)-2H-chromen-2-one] | 0.3 to 1 µM | 3000 to 10000 nM | *** (fold increase between >1.35 and ≤1.5) |
| 196 to 198 °C | O=c1oc2cc(N3CCNCC3)ccc2cc1-c1cn2cccc(Cl)c2n1 [Compound 83, 3-(8-chloroimidazo[1,2-a]pyridin-2-yl)-7-(piperazin-1-yl)-2H-chromen-2-one] | 0.3 to 1 µM | 1000 to 3000 nM | **** (fold increase between >1.5 and ≤1.65) |
| 155 to 157 °C | COc1cccc(-c2cc3ccc(N4CCN[C@@H](C)C4)cc3oc2=O)n1 [Compound 362, 3-(6-methoxypyridin-2-yl)-7-[(3S)-3-methylpiperazin-1-yl]-2H-chromen-2-one] | 0.3 to 1 µM | – | ** (fold increase between >1.2 and ≤1.35) |
| 180 to 182 °C | CN1CCN(c2ccc3cc(-c4cccnc4C(F)(F)F)c(=O)oc3c2)CC1 [Compound 125, 7-(4-methylpiperazin-1-yl)-3-[2-(trifluoromethyl)pyridin-3-yl]-2H-chromen-2-one] | 1 to 3 µM | – | * (maximum fold increase of ≤1.2) |
| 263 to 265 °C | C[C@@H]1CN(c2ccc3cc(-c4cn5ccsc5n4)c(=O)oc3c2)C[C@H](C)N1 [Compound 167, 7-[(3R,5S)-3,5-dimethylpiperazin-1-yl]-3-(imidazo[2,1-b][1,3]thiazol-6-yl)-2H-chromen-2-one] | 0.3 to 1 µM | – | ** (fold increase between >1.2 and ≤1.35) |
| 230 to 233 °C | C[C@H]1CN(c2ccc3cc(-c4cn5ccsc5n4)c(=O)oc3c2)CCN1 [Compound 205, 3-(imidazo[2,1-b][1,3]thiazol-6-yl)-7-[(3S)-3-methylpiperazin-1-yl]-2H-chromen-2-one] | < 0.1 µM | – | *** (fold increase between >1.35 and ≤1.5) |
| 232 to 237 °C | Cc1cccn2cc(-c3cc4c(F)cc(N5CCN(C)CC5)cc4oc3=O)nc12 [Compound 423, 5-fluoro-3-(8-methylimidazo[1,2-a]pyridin-2-yl)-7-(4-methylpiperazin-1-yl)-2H-chromen-2-one] | 1 to 3 µM | – | * (maximum fold increase of ≤1.2) |
| 273 to 276 °C | Cc1cn2cc(-c3cc4ccc(N5CCN(C6COC6)CC5)cc4oc3=O)nc2cn1 [Compound 839, 3-(6-methylimidazo[1,2-a]pyrazin-2-yl)-7-[4-(oxetan-3-yl)piperazin-1-yl]-2H-chromen-2-one] | 0.1 to 0.3 µM | 300 to 1000 nM | **** (fold increase between >1.5 and ≤1.65) |

More lines, now with the values behind:

| Structure (SMILES) | melting point | EC (1.5-fold) [1] | EC1.5x (concentration giving 1.5-fold Smn protein increase) (Smn protein) | maximum fold (Fold) increase of Smn protein (Smn protein) |
| --- | --- | --- | --- | --- |
| C[C@@H]1CN(c2ccc3cc(-c4cn5cccc(F)c5n4)c(=O)oc3c2)C[C@H](C)N1 [Compound 338, 7-[(3R,5S)-3,5-dimethylpiperazin-1-yl]-3-(8-fluoroimidazo[1,2-a]pyridin-2-yl)-2H-chromen-2-one] | 176 to 180 °C | 0.1 to 0.3 µM | 3000 to 10000 nM | ** (fold increase between >1.2 and ≤1.35) |
| Cc1nccn2cc(-c3cc4ccc(O[C@@H]5CCNC5)cc4oc3=O)nc12 [Compound 610, 3-(8-methylimidazo[1,2-a]pyrazin-2-yl)-7-[(3R)-pyrrolidin-3-yloxy]-2H-chromen-2-one] | 220 to 230 °C | 0.3 to 1 µM | – | ** (fold increase between >1.2 and ≤1.35) |
| Cc1cn2cc(-c3cc4ccc(N5CC[C@@H](N(C)C)C5)cc4oc3=O)cc2c(C)n1 [Compound 708, 7-[(3R)-3-(dimethylamino)pyrrolidin-1-yl]-3-(1,3-dimethylpyrrolo[1,2-a]pyrazin-7-yl)-2H-chromen-2-one] | 155 to 158 °C | < 0.1 µM | – | ** (fold increase between >1.2 and ≤1.35) |
| CCN1CCN(c2ccc3cc(-c4cc5ccccn5n4)c(=O)oc3c2)CC1 [Compound 194, 7-(4-ethylpiperazin-1-yl)-3-(pyrazolo[1,5-a]pyridin-2-yl)-2H-chromen-2-one] | 246 to 248 °C | 0.3 to 1 µM | – | * (maximum fold increase of ≤1.2) |
| Cn1cc(-c2cc3ccc(N4CCNCC4)cc3oc2=O)c2ccccc21 [Compound 258, 3-(1-methyl-1H-indol-3-yl)-7-(piperazin-1-yl)-2H-chromen-2-one] | 201 to 203 °C | 0.3 to 1 µM | – | * (maximum fold increase of ≤1.2) |
| Cc1ccn2cc(-c3cc4ccc(N5CCNC(C)(C)C5)cc4oc3=O)nc2c1 [Compound 215, 7-(3,3-dimethylpiperazin-1-yl)-3-(7-methylimidazo[1,2-a]pyridin-2-yl)-2H-chromen-2-one] | 217 to 223 °C | 1 to 3 µM | – | * (maximum fold increase of ≤1.2) |
| COc1cc(-c2cc3ccc(N4CCN[C@@H](C)C4)cc3oc2=O)ccc1F [Compound 577, 3-(4-fluoro-3-methoxyphenyl)-7-[(3S)-3-methylpiperazin-1-yl]-2H-chromen-2-one] | 189 to 191 °C | 1 to 3 µM | – | ** (fold increase between >1.2 and ≤1.35) |
| Cc1cn2cc(-c3cc4ccc(N5CCN[C@@H](C)C5)cc4oc3=O)cc2c(C)n1 [Compound 680, 3-(1,3-dimethylpyrrolo[1,2-a]pyrazin-7-yl)-7-[(3S)-3-methylpiperazin-1-yl]-2H-chromen-2-one] | 162 to 165 °C | < 0.1 µM | < 300 nM | **** (fold increase between >1.5 and ≤1.65) |
| Cc1ccn2cc(-c3cc4ccc(N[C@@H]5CCNC5)cc4oc3=O)nc2c1 [Compound 496, 3-(7-methylimidazo[1,2-a]pyridin-2-yl)-7-[(3R)-pyrrolidin-3-ylamino]-2H-chromen-2-one] | 244 to 254 °C | 0.3 to 1 µM | – | * (maximum fold increase of ≤1.2) |
| O=c1oc2cc(CN3CCC(O)C3)ccc2cc1-c1nc2c(Cl)cccc2s1 (centres unmarked) [Compound 272, 3-(4-chloro-1,3-benzothiazol-2-yl)-7-[(3-hydroxypyrrolidin-1-yl)methyl]-2H-chromen-2-one] | 188 to 192 °C | 1 to 3 µM | – | ** (fold increase between >1.2 and ≤1.35) |
| Cc1cn2cc(-c3cc4ccc(N5CCC(N(C)C)CC5)cc4oc3=O)nc2c(C)n1 [Compound 921, 7-[4-(dimethylamino)piperidin-1-yl]-3-(6,8-dimethylimidazo[1,2-a]pyrazin-2-yl)-2H-chromen-2-one] | 189 to 193 °C | < 0.1 µM | < 300 nM | **** (fold increase between >1.5 and ≤1.65) |
| CC(C)N1CCN(c2ccc3cc(-c4cc5ccccn5n4)c(=O)oc3c2)CC1 [Compound 196, 7-[4-(propan-2-yl)piperazin-1-yl]-3-(pyrazolo[1,5-a]pyridin-2-yl)-2H-chromen-2-one] | 243 to 246 °C | 1 to 3 µM | – | * (maximum fold increase of ≤1.2) |
| Cc1cn2cc(-c3cc4ccc(CCCN5CCN(C)CC5)cc4oc3=O)nc2c(C)n1 [Compound 860, 3-(6,8-dimethylimidazo[1,2-a]pyrazin-2-yl)-7-[3-(4-methylpiperazin-1-yl)propyl]-2H-chromen-2-one] | 219 to 223 °C | 0.3 to 1 µM | 1000 to 3000 nM | **** (fold increase between >1.5 and ≤1.65) |
| Cc1ccn2cc(-c3cc4ccc(N5CCCNCC5)cc4oc3=O)nc2n1 [Compound 230, 7-(1,4-diazepan-1-yl)-3-(7-methylimidazo[1,2-a]pyrimidin-2-yl)-2H-chromen-2-one] | 286 to 288 °C | 0.3 to 1 µM | – | *** (fold increase between >1.35 and ≤1.5) |
| Cc1cn2cc(-c3cc4ccc(N5C[C@@H](C)N(C)[C@@H](C)C5)cc4oc3=O)nc2c(C)n1 [Compound 605, 3-(6,8-dimethylimidazo[1,2-a]pyrazin-2-yl)-7-[(3R,5S)-3,4,5-trimethylpiperazin-1-yl]-2H-chromen-2-one] | 229 to 232 °C | < 0.1 µM | < 300 nM | ***** (fold increase >1.65) |
| CN1CCN(c2ccc3cc(-c4cn5cc(Cl)sc5n4)c(=O)oc3c2)CC1 [Compound 478, 3-(2-chloroimidazo[2,1-b][1,3]thiazol-6-yl)-7-(4-methylpiperazin-1-yl)-2H-chromen-2-one] | 268 to 270 °C | 0.3 to 1 µM | – | * (maximum fold increase of ≤1.2) |
